According to ChEMBL document CHEMBL5634101, “Discovery of NLRP3 inhibitors using machine learning: Identification of a hit compound to treat NLRP3 activation-driven diseases” (Eur J Med Chem, 2023):
Active and inactive are the calls of the source.

What was measured:
Mus musculus [1] = assay: Anti-inflammatory activity in LPS-induced C57 sepsis mouse model assessed as reduction in serum IL-1beta level at 10 to 30 mg/kg, ip preadministered with compound for 30 mins followed by LPS stimulation and measured after 6 hrs by ELISA; assay type: functional, organism-based; conditions: dose 10-30 mg/kg, time 6.5 hrs
[2] = Stability in human liver microsomes assessed as intrinsic clearance at 1.5 uM measured upto 45 mins in presence of NADPH by LC-MS/MS analysis; assay type: ADME, Microsome; conditions: read-out: CLH
[3] = molecular target: NACHT, LRR and PYD domains-containing protein 3 (Mus musculus) (UniProt Q8R4B8); assay: (§1) Inhibition of NLRP3 inflammasome activation in LPS/Nigericin induced C57 mouse BMDM cells assessed as reduction in pro-IL-1beta expression in cell supernatant at 2.5 to 10 uM preincubated with LPS for 3 hrs followed by compound addition for 30 mins prior to nigericin addition and measured after 30 mins by Western blot analysis; assay type: cell-based; conditions: dose 2.5-10 µM, time 1.0 hrs
BMDM = assay: Effect on TNF-alpha secretion in LPS/Nigericin induced C57 mouse BMDM cells at 1.25 to 10 uM preincubated with LPS for 3 hrs followed by compound addition for 30 mins prior to nigericin addition and measured after 30 mins by ELISA; assay type: functional, cell-based; conditions: dose 1.25-10 µM, time 1.0 hrs
Mus musculus [4] = assay: Anti-inflammatory activity in MSU-induced C57 mouse model of gouty arthritis assessed as reduction in AUC of foot swelling at 30 mg/kg, ip preadministered with compound for 3 days followed by MSU injection and measured after 24 hrs; assay type: functional, organism-based; conditions: time 4.0 day
Mus musculus [5] = assay: Analgesic activity in MSU-induced C57 mouse model of gouty arthritis assessed as increase in pain threshold at 10 to 30 mg/kg, ip preadministered with compound for 3 days followed by MSU injection and measured after 24 hrs by von frey test; assay type: functional, organism-based; conditions: dose 10-30 mg/kg, time 4.0 day
[6] = molecular target: NACHT, LRR and PYD domains-containing protein 3 (Mus musculus) (UniProt Q8R4B8); assay: Inhibition of NLRP3 inflammasome activation in C57 mouse BMDM cells assessed as reduction in caspase-1 maturation at 5 uM preincubated with LPS for 3 hrs followed by compound addition for 30 mins prior to MSU addition and measured after 4 hrs by Western blot analysis; assay type: cell-based; conditions: time 4.5 hrs
HEK-293T = assay: Cytotoxicity against HEK293T cells assessed as reduction in cell viability upto 50 uM incubated for 24 hrs by CCK8 assay; assay type: toxicity, cell-based; conditions: human
[7] = molecular target: NACHT, LRR and PYD domains-containing protein 3 (Mus musculus) (UniProt Q8R4B8); assay: Inhibition of NLRP3 inflammasome assembly in C57 mouse BMDM cells assessed as effect on NEK7 binding at 2.5 to 10 uM preincubated with LPS for 3 hrs followed by compound addition for 30 mins prior to nigericin addition and measured after 30 mins by immunoprecipitation; assay type: cell-based; conditions: dose 2.5-10 µM, time 1.0 hrs
THP-1 = assay: Cytotoxicity against PMA-differentiated human THP-1 cells assessed as reduction in cell viability upto 50 uM incubated for 24 hrs by CCK8 assay; assay type: toxicity, cell-based; conditions: thp-1, 24 h
[8] = molecular target: NACHT, LRR and PYD domains-containing protein 3 (Mus musculus) (UniProt Q8R4B8); assay: as §1, with “ASC” for “pro-IL-1beta”; assay type: cell-based; conditions: dose 2.5-10 µM, time 1.0 hrs
[9] = molecular target: NACHT, LRR and PYD domains-containing protein 3 (Mus musculus) (UniProt Q8R4B8); assay: as §1, with “pro-caspase-1(p45)” for “pro-IL-1beta”; assay type: cell-based; conditions: dose 2.5-10 µM, time 1.0 hrs
[10] = molecular target: NACHT, LRR and PYD domains-containing protein 3 (Mus musculus) (UniProt Q8R4B8); assay: Inhibition of NLRP3 inflammasome assembly in C57 mouse BMDM cells assessed as reduction in ASC monomer at 2.5 to 10 uM preincubated with LPS for 3 hrs followed by compound addition for 30 mins prior to nigericin addition and measured after 30 mins by blotting analysis; assay type: cell-based; conditions: dose 2.5-10 µM, time 1.0 hrs
[11] = molecular target: NACHT, LRR and PYD domains-containing protein 3 (Mus musculus) (UniProt Q8R4B8); assay: Inhibition of NLRP3 inflammasome activation in C57 mouse BMDM cells assessed as reduction in IL-1beta secretion at 5 uM preincubated with LPS for 3 hrs followed by compound addition for 30 mins prior to nigericin addition and measured after 30 mins by Western blot analysis; assay type: cell-based; conditions: time 1.0 hrs
[12] = molecular target: T1, NACHT, LRR and PYD domains-containing protein 3 (Homo sapiens, UniProt Q96P20); assay: Binding affinity to CM5 chip immobilized NLRP3 (unknown origin) assessed as dissociation constant by SPR analysis
[13] = molecular target: NLR family CARD domain-containing protein 4 (Mus musculus) (UniProt Q3UP24); assay: Inhibition of NLRC4 inflammasome activation in C57 mouse BMDM cells assessed as reduction in caspase-1 maturation at 5 uM preincubated with LPS for 3 hrs followed by Salmonella typhimurium stimulation for 2 hrs by Western blot analysis; assay type: cell-based
[14] = molecular target: NACHT, LRR and PYD domains-containing protein 3 (Mus musculus) (UniProt Q8R4B8); assay: Inhibition of NLRP3 inflammasome activation in C57 mouse BMDM cells assessed as reduction in caspase-1 maturation at 5 uM preincubated with LPS for 3 hrs followed by compound addition for 30 mins prior to ATP addition and measured after 30 mins by Western blot analysis; assay type: cell-based; conditions: time 1.0 hrs
[15] = molecular target: T1, NACHT, LRR and PYD domains-containing protein 3; assay: Inhibition of NLRP3 inflammasome activation in […]-differentiated human THP-1 cells assessed as effect on potassium efflux at 2.5 to 10 uM preincubated with LPS for 3 hrs followed by compound addition for 30 mins prior to nigericin addition and measured after 30 mins by fluorescence based analysis; assay type: cell-based; conditions: dose 2.5-10 µM, time 1.0 hrs
L02 = assay: Cytotoxicity against human L02 cells assessed as reduction in cell viability upto 50 uM incubated for 24 hrs by CCK8 assay; assay type: toxicity, cell-based; conditions: l02, 24 h
Mus musculus [16] = assay: Anti-inflammatory activity in LPS-induced C57 sepsis mouse model assessed as reduction in inflammatory infiltration in liver at 10 to 30 mg/kg, ip preadministered with compound for 30 mins followed by LPS stimulation and measured after 6 hrs by H&E staining based analysis; assay type: functional, organism-based; conditions: dose 10-30 mg/kg, time 6.5 hrs
[17] = molecular target: NACHT, LRR and PYD domains-containing protein 3 (Mus musculus) (UniProt Q8R4B8); assay: Inhibition of NLRP3 inflammasome activation in C57 mouse BMDM cells assessed as reduction in caspase-1 activation at 5 uM preincubated with LPS for 3 hrs followed by compound addition for 30 mins prior to nigericin addition and measured after 30 mins by Western blot analysis; assay type: cell-based; conditions: time 1.0 hrs

Sequence of NACHT, LRR and PYD domains-containing protein 3 (Mus musculus) (Q8R4B8 whole entry, the tested form may be a part): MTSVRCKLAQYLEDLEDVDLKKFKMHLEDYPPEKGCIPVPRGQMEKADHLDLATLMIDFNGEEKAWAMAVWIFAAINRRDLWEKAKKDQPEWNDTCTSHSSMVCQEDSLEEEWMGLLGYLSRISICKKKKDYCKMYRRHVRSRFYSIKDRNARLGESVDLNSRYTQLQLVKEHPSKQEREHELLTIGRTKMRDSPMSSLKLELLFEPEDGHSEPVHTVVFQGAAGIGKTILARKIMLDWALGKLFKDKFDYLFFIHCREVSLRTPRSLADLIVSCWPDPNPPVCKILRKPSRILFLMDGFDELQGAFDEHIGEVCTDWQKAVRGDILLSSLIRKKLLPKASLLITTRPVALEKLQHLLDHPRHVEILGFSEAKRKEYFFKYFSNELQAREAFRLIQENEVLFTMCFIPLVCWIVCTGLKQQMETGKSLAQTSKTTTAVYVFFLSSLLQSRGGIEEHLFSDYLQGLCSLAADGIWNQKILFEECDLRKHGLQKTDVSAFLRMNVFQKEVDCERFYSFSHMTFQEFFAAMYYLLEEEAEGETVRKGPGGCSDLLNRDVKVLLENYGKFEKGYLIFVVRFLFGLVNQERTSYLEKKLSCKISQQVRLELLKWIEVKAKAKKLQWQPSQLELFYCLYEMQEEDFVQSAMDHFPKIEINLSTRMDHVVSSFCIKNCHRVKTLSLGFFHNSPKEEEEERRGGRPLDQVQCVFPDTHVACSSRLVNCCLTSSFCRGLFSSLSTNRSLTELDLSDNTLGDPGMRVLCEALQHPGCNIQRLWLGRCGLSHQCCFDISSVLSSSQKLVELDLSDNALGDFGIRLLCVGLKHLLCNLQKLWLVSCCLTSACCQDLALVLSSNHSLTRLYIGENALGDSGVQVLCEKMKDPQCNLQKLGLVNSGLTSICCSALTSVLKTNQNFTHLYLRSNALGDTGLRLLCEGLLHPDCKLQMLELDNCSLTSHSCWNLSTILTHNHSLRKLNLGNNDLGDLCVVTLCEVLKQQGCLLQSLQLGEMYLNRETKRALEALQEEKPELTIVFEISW
T1 sequence (Q96P20 whole entry, the tested form may be a part): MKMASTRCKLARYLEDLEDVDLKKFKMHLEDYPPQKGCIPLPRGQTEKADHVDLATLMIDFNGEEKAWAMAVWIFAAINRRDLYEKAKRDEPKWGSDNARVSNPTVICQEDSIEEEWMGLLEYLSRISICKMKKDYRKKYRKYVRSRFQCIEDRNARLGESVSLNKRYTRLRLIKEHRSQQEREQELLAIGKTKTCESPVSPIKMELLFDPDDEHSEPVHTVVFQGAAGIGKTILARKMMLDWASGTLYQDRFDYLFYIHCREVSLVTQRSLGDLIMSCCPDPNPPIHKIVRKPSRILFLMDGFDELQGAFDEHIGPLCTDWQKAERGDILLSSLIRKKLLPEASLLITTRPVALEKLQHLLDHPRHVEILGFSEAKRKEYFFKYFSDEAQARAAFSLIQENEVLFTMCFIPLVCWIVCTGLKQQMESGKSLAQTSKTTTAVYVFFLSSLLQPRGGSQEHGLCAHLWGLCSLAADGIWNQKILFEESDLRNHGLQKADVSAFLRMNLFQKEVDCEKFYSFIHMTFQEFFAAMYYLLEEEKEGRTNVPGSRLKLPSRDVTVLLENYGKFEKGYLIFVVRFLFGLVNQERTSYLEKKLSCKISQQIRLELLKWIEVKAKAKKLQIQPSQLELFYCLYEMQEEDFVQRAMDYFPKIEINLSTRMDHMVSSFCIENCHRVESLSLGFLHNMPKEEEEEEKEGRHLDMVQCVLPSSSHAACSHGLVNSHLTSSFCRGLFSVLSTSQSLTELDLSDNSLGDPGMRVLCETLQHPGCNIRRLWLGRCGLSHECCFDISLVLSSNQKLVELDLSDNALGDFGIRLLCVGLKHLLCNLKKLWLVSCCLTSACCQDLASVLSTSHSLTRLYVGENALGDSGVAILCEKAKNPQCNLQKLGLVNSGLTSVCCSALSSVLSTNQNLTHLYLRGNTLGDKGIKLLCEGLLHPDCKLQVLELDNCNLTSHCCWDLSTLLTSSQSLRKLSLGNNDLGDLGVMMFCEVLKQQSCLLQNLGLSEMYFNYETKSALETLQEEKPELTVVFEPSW
Sequence of NLR family CARD domain-containing protein 4 (Mus musculus) (Q3UP24 whole entry, the tested form may be a part): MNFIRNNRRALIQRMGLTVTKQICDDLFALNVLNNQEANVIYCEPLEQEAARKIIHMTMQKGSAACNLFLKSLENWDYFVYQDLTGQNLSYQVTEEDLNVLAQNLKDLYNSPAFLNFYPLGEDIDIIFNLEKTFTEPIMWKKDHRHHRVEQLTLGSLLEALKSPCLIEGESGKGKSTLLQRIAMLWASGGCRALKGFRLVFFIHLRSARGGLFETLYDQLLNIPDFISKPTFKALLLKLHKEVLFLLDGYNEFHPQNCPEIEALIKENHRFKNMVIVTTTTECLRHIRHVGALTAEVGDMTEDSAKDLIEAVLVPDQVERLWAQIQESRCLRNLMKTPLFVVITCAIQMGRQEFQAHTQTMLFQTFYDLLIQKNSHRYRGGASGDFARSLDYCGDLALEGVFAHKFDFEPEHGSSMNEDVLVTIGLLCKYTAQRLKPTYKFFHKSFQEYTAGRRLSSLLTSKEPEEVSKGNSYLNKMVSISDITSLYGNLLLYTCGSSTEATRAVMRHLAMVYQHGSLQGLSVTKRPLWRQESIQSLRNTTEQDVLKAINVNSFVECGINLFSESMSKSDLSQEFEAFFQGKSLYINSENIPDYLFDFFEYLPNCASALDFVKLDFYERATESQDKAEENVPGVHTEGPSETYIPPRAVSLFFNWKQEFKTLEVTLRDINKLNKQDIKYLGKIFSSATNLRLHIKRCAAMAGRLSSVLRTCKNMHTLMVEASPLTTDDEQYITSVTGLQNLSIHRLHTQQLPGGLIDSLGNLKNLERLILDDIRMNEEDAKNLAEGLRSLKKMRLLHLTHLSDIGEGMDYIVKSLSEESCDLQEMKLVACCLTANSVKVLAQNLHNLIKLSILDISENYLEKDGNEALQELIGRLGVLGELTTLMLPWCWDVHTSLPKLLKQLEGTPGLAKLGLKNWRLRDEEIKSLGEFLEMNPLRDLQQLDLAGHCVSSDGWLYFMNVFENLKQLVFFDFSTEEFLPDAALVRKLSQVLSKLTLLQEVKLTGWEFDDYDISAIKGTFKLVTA

- CLint scaled at 1.5 µM [2]: 11.2 mL/min/kg
- inhibition [3]: inactive
- inhibition [6]: Active
- inhibition [7]: Active
- inhibition [8]: inactive
- inhibition [9]: inactive
- inhibition [10]: Active
- inhibition [11]: Active
- Kd [12]: 7.2 µM
- inhibition [13]: inactive
- inhibition [14]: Active
- inhibition [15]: inactive
- inhibition [17]: Active
Structure (SMILES): COc1ccc(N2C(=O)/C(=C\c3ccccc3C(F)(F)F)SC2=S)cc1
- Activity (Mus musculus [1]): Active
- Activity (BMDM): inactive
- Activity (Mus musculus [4]): Active
- Activity (Mus musculus [5]): Active
- Activity (HEK-293T): Non-Toxic
- Activity (THP-1): Non-Toxic
- Activity (L02): Non-Toxic
- Activity (Mus musculus [16]): Active
